Measured values as given in PMC12675387, “Receptor interaction profiles of 4-alkoxy-2,6-dimethoxyphenethylamines (Ψ derivatives) and related amphetamines” (Frontiers in Pharmacology, 2025).

How the values were obtained:
human TAAR1 = molecular target: T1, human TAAR1 (Homo sapiens, UniProt Q96RJ0); test: Activation potency at human TAAR1 (cAMP assay, HEK 293 cells); type: cell-based
T1 construct: expressed in transfected cells; host or cells: HEK 293 cells
T1 sequence (Q96RJ0 1-339): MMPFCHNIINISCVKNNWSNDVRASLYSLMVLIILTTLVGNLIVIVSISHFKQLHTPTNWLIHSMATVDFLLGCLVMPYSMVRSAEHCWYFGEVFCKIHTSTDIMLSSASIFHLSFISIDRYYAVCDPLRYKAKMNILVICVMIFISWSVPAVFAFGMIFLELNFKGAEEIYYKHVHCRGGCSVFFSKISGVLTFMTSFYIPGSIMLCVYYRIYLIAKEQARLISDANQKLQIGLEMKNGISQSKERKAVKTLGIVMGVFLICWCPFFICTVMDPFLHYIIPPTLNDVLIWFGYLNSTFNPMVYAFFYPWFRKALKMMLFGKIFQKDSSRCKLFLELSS
Procedure: The activation potency at the human TAAR1 was determined as previously described by [Luethi et al. (2018)]. In summary, recombinant HEK 293 cells stably transfected with the human TAAR1 were grown in culture flasks composed of 30 mL high glucose DMEM with 10% heat inactivated fetal calf serum, […] Geneticin, and […] hygromycin B at 37 °C and 5% CO2. The cells were grown to 80%–90% confluency before collection. The cells were washed with phosphate-buffer saline (PBS) and 5 mL of trypsin/EDTA solution were added for 5 min at 37 °C to detach the cells from the flask. Then, 45 mL of fresh medium were added to the flask and the total mixture was put into a falcon tube, which was centrifuged for 3 min at 900 rpm at room temperature. The supernatant was aspirated, and the remaining cell pellet was resuspended in fresh medium to a concentration of 5 × 10^5 cells per mL. Next, 100 μL of the cell mixture was transferred to a 96 well plate (BIOCOAT 6640, Becton Dickinson, Allschwil, Switzerland) and incubated for 20 h at 37 °C. For the cAMP assay, the medium was removed and replaced with 50 μL PBS lacking calcium or magnesium ions. The PBS was extracted via snap inversion and the plate was gently tapped on tissue to remove any remaining PBS solution. The plate was then incubated with Krebs-Ringer Bicarbonate buffer (90 μL/well; KRB, Sigma-Aldrich) containing 1 mM IBMX for 1 h at 37 °C and 5% CO2/95% air. Test compounds were investigated in duplicate at various concentrations ranging from 300 pM to 30 μM. A cAMP standard curve (concentration range of 0.13 nM–10 μM) was included on each 96 well plate. Additionally, a reference plate was used containing RO5256390, β-phenylethylamine and p-tyramine. Cells were incubated with either 30 μL of compound solution, β-phenylethylamine (which represented the maximal response) or a basal control in PBS (supplemented with 1 mM IBMX) for 40 min at 37 °C. Thereafter, the cells were incubated with 50 μL of 3× detection mix solution (consisting of Ru-cAMP Alexa700 anti-cAMP antibody and lysis buffer) for 40 min at 37 °C, while covered with black lids and under forceful shaking. The fluorescence (456 nm excitation wavelength; 630 and 700 nm emission wavelengths) was measured using a NanoScan reader (Innovate Optische Messtechnik, Berlin, Germany) and the FRET signal was calculated using the following equation: FRET (700 nm) – P × FRET (630 nm). P was equal to Ru (700 nm)/Ru (630 nm).

hα2A adrenergic receptor = molecular target: T2, hα2A adrenergic receptor (Homo sapiens, UniProt P08913); test: Radioligand binding, α2A adrenergic receptor ([3H]rauwolscine)
T2 sequence (P08913 1-465): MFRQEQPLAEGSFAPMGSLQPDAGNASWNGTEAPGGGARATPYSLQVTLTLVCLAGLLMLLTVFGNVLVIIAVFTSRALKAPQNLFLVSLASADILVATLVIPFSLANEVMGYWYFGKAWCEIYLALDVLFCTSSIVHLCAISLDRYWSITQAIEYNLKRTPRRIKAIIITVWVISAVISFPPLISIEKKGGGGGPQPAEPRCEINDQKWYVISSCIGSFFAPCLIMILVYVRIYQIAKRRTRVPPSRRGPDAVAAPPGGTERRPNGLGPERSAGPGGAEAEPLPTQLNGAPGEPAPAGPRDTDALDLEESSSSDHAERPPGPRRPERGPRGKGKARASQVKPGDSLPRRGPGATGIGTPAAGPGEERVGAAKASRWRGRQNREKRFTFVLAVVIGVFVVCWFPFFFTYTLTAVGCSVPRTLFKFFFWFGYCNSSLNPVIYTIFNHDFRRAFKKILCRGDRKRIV

hD2 receptor = hD2 receptor (Homo sapiens, UniProt P14416); test: Radioligand binding, dopaminergic D2 receptor ([3H]spiperone)
Chain of hD2 receptor (P14416 whole entry): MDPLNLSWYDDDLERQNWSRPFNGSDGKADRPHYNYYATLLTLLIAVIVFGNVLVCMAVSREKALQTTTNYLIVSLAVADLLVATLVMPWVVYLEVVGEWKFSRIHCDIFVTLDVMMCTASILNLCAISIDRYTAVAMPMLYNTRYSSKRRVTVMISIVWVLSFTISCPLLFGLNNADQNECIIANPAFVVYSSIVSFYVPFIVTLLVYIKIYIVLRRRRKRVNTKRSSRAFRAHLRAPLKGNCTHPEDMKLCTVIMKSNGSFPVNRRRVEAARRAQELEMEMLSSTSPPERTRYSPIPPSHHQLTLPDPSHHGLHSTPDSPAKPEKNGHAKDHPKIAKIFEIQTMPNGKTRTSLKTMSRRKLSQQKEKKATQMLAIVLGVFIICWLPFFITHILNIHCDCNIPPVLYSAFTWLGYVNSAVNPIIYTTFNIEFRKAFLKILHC

hDAT = hDAT (Homo sapiens, UniProt Q01959); test: Radioligand binding, DAT ([3H]WIN35,428)
Chain of hDAT (Q01959 whole entry): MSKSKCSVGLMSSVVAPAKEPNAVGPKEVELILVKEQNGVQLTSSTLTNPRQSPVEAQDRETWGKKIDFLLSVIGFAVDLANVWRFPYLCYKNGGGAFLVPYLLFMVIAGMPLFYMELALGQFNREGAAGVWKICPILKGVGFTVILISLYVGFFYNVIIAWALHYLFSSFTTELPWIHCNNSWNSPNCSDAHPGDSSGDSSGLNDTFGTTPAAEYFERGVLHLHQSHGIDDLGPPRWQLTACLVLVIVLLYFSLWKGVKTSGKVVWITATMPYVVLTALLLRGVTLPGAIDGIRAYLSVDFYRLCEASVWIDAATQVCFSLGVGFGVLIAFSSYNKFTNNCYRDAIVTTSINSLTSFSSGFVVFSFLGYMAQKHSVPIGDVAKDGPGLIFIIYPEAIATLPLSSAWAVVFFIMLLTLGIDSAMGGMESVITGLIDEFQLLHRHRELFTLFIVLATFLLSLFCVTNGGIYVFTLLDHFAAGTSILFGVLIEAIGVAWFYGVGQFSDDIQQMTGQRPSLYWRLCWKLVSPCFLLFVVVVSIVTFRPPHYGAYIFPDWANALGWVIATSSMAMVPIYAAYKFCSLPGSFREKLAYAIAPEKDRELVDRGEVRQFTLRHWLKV

human 5-HT2B receptor = molecular target: T3, human 5-HT2B receptor (Homo sapiens, UniProt P41595); test: Activation potency and efficacy at the 5-HT2B receptor (Fluo-4 calcium, HEK 293 cells); type: cell-based; conditions: for Emax: HEK293, relative to 5-HT (100%), read-out: h5-HT2B activation efficacy Emax ± SD
T3 construct: expressed in transfected cells; host or cells: HEK 293 cells
T3 sequence (P41595 whole entry): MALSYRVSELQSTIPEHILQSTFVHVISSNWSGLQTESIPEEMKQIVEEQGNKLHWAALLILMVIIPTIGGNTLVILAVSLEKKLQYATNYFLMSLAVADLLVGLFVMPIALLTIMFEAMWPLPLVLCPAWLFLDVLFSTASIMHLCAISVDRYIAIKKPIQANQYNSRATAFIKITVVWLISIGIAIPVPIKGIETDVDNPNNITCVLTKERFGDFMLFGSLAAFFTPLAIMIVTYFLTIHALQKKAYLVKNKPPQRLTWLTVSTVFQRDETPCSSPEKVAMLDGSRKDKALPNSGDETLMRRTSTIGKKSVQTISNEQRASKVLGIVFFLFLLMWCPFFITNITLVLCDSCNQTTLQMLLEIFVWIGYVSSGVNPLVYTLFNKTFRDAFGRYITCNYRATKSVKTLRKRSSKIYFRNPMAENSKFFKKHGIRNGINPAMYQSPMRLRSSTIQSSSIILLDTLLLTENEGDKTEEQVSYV
Procedure: The activation potency and efficacy at the 5-HT2B receptor were determined as previously described by [Luethi et al. (2018)]. In summary, HEK 293 cells stably transfected with the human 5-HT2B receptor were seeded in poly-D-lysine-coated 96 well plates at a density of 50,000 cells per well overnight at 37 °C in high glucose Dulbecco’s modified Eagle’s medium (DMEM; Invitrogen, Zug, Switzerland) supplemented with 10% fetal calf serum (non-dialyzed and heat-inactivated), 250 mg/L Geneticin, and 100 U/mL penicillin, and 100 μg/mL streptomycin (Gibco). The growth medium was removed by snap inversion and the cells were exposed to 100 μL calcium indication Fluo-4-solution (Molecular Probes, Eugene, OR, United States) for 45 min at 31 °C. Thereafter, the Fluo-4-solution was removed once again by snap inversion and was replaced with fresh 100 μL Fluo-4-solution. Next, the cells were washed with HBSS and 20 mM HEPES using the EMBLA cell washer and then exposed to the assay buffer (100 μL per well). Afterwards, 25 μL of test compounds diluted in assay buffer were added to the plate online. Dose–response curves were determined using nonlinear regression and EC50 values were calculated. The activation efficacy was calculated relative to the 5-HT activity (defined as 100%).

h5-HT2A receptor = h5-HT2A receptor (Homo sapiens, UniProt P28223); test: Radioligand binding, 5-HT2A receptor ([3H]ketanserin); conditions: for fold difference in 5-HT2A receptor affinity between Ψ derivative and its 2,4,5-trisubstituted counterpart: TMA-6 vs TMA-2, Ψ-2C-O-16 vs 2C-O-16, Ψ-MALM vs MALM: higher affinity of the Ψ derivative; for Selectivity (binding ratio) 5-HT2A/5-HT1A: preference for 5-HT2A (Ki 5-HT1A divided by Ki 5-HT2A); for Selectivity (binding ratio) 5-HT2A/5-HT2C: preference for 5-HT2A (Ki 5-HT2C divided by Ki 5-HT2A); for fold increase in 5-HT2A affinity over the 4-methoxy analog: pairs Ψ-2C-O-1/Ψ-2C-O-35 and TMA-6/Ψ-DODFMO
Chain of h5-HT2A receptor (P28223 whole entry): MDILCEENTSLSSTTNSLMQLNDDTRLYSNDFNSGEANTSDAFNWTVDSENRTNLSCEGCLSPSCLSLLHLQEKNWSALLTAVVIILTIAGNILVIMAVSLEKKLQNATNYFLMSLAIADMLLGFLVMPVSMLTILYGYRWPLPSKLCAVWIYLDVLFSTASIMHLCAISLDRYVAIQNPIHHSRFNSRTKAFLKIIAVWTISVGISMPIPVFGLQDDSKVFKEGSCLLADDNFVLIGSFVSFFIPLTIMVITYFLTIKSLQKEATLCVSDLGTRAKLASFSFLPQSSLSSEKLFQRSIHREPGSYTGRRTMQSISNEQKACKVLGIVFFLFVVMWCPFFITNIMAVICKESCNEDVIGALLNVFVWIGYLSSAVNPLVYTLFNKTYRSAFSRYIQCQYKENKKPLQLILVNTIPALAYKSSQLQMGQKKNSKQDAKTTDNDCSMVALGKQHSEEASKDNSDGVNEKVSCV

Structure (SMILES) | EC50 (human TAAR1) [nM] | Ki (hα2A adrenergic receptor) [nM] | Ki (hD2 receptor) [nM] | Ki (hDAT; hDAT Ki ± SD, [3H]WIN35,428) [nM] | EC50 (human 5-HT2B receptor) [nM] | Emax (human 5-HT2B receptor) [%] | Ki (h5-HT2A receptor) [nM] | fold difference in 5-HT2A receptor affinity between Ψ derivative and its 2,4,5-trisubstituted counterpart (h5-HT2A receptor) | Selectivity (binding ratio) 5-HT2A/5-HT1A (h5-HT2A receptor) | Selectivity (binding ratio) 5-HT2A/5-HT2C (h5-HT2A receptor) | Ki (hDAT; DAT Ki) [nM] | fold difference in 5-HT2B activation potency, amphetamine vs phenethylamine counterpart (human 5-HT2B receptor; Ψ-MEM vs Ψ-2C-O-2) [fold] | fold increase in 5-HT2A affinity over the 4-methoxy analog (h5-HT2A receptor)
C=CCOc1cc(OC)c(CCN)c(OC)c1 [Ψ-2C-O-16, 4-allyloxy-2,6-dimethoxyphenethylamine] | 34 ± 15 | 310 ± 20 | > 6000 | > 8500 | 91 ± 31 | 27 ± 8 | 54 ± 4 | 2–5 fold | 17 | 9.3 | – | – | –
C=C(C)COc1cc(OC)c(CC(C)N)c(OC)c1 (centres unmarked) [Ψ-MMALM, 2,6-dimethoxy-4-methallyloxyamphetamine] | 2500 | 1400 | > 6000 | 5700 | 93 ± 26 | 33 ± 11 | 52 ± 10 | – | >108 | 5.6 | – | – | –
COc1cc(OCC(F)(F)F)cc(OC)c1CCN [Ψ-2C-O-22, 2,6-dimethoxy-4-(2,2,2-trifluoroethoxy)phenethylamine] | 47 ± 22 | 1500 | > 6000 | > 8500 | > 10000 | – | 600 ± 60 | – | 4 | 3.7 | – | – | –
COc1cc(OCC(F)F)cc(OC)c1CC(C)N (centres unmarked) [Ψ-MDFEM, 4-(2,2-difluoroethoxy)-2,6-dimethoxyamphetamine] | 850 ± 500 | 3300 | > 6000 | 5400 | > 10000 | – | 950 ± 240 | – | >6 | 10 | – | – | –
COc1cc(OCc2ccccc2)cc(OC)c1CCN [Ψ-2C-O-27, 4-benzyloxy-2,6-dimethoxyphenethylamine] | 3000 | 410 ± 20 | > 6000 | 1300 | > 10000 | – | 8 ± 1 | – | 280 | 15 | 1300 to 1800 | – | –
COc1cc(OCc2ccccc2)cc(OC)c1CC(C)N (centres unmarked) [Ψ-MBnM, 4-benzyloxy-2,6-dimethoxyamphetamine] | > 30000 | 2000 | > 6000 | 1800 | > 10000 | – | 21 ± 2 | – | – | 13 | 1300 to 1800 | – | –
COc1cc(OC)c(CC(C)N)c(OC)c1 (centres unmarked) [TMA-6, 2,4,6-trimethoxyamphetamine] | > 30000 | 3100 | > 6000 | > 8500 | 150 ± 20 | 59 ± 3 | 270 ± 18 | 2–5 fold | >21 | 6.7 | – | – | –
CCOc1cc(OC)c(CC(C)N)c(OC)c1 (centres unmarked) [Ψ-MEM, 2,6-dimethoxy-4-ethoxyamphetamine] | 2200 | 2200 | > 6000 | > 8500 | 260 ± 160 | 28 ± 11 | 490 ± 20 | – | >11 | 10 | – | 8 | –
COc1cc(OCCF)cc(OC)c1CCN [Ψ-2C-O-21, 2,6-dimethoxy-4-(2-fluoroethoxy)phenethylamine] | 80 ± 43 | – | > 6000 | > 8500 | > 10000 | – | 970 ± 190 | – | 1.6 | 3.6 | – | – | –
COc1cc(OC(F)F)cc(OC)c1CC(C)N (centres unmarked) [Ψ-DODFMO, 4-(2,2-difluoromethoxy)-2,6-dimethoxyamphetamine] | > 30000 | 2300 | > 6000 | > 8500 | 160 ± 50 | 58 ± 23 | 84 ± 23 | – | 61 | 21 | – | – | 3–4 fold
C=CCOc1cc(OC)c(CC(C)N)c(OC)c1 (centres unmarked) [Ψ-MALM, 4-allyloxy-2,6-dimethoxyamphetamine] | > 30000 | 1800 | > 6000 | > 8500 | 55 ± 24 | 69 ± 19 | 75 ± 11 | 2–5 fold | >75 | 10 | – | – | –
COc1cc(OC(F)F)cc(OC)c1CCN [Ψ-2C-O-35, 4-(2,2-difluoromethoxy)-2,6-dimethoxyphenethylamine] | > 30000 | 450 ± 70 | > 6000 | > 8500 | 300 ± 230 | 20 ± 13 | 72 ± 18 | – | – | 7.1 | – | – | 3–4 fold
COc1cc(OCC(F)F)cc(OC)c1CCN [Ψ-2C-O-21.5, 4-(2,2-difluoroethoxy)-2,6-dimethoxyphenethylamine] | 41 ± 9 | 1000 | > 6000 | > 8500 | > 10000 | – | 1600 | – | 0.8 | 1.8 | – | – | –
CCOc1cc(OC)c(CCN)c(OC)c1 [Ψ-2C-O-2, 2,6-dimethoxy-4-ethoxyphenethylamine] | 230 ± 170 | 670 ± 60 | > 6000 | > 8500 | 2100 | 27 ± 8 | 400 ± 280 | – | 1.8 | 3.8 | – | – | –
